Assay results published in the supplement of paper PMC10307832.

Columns and labels:
Test in all cases: relative viability (nuclei count vs DMSO), 5 days (fraction); higher = more cells survive
[1] = system: 201T
Method in brief: (§1)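 Nuclei were stained with Hoechst during a one-step fixation (final 0.05% Triton X-100, 1% formaldehyde, 1 ug/ml Hoechst) carried out 5 days after dosing, then counted on 4× images. The cells, lung cancer lines in 1536-well plates, had been dosed by pin tool the day after seeding with one drug alone or a fixed anchor-drug dose plus five library-drug doses (not always all listed) in √10 steps. Relative viability is the nuclei count in treated wells divided by that in vehicle wells, and each value is the median of duplicate plates.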

[2] = system: ABC-1
Method in brief: as §1

[3] = system: EMC-BAC-2
Method in brief: as §1

[4] = system: EPLC-272H
Method in brief: as §1

[5] = system: LCLC-103H
Method in brief: as §1

[6] = system: LOU-NH91
Method in brief: as §1

[7] = system: NCI-H1395
Method in brief: as §1

[8] = system: NCI-H1437
Method in brief: as §1

[9] = system: NCI-H1651
Method in brief: as §1

[10] = system: NCI-H1734
Method in brief: as §1

[11] = system: NCI-H1792
Method in brief: as §1

[12] = system: NCI-H1793
Method in brief: as §1

[13] = system: NCI-H1915
Method in brief: as §1

[14] = system: NCI-H1975
Method in brief: as §1

[15] = system: NCI-H2023
Method in brief: as §1

[16] = system: NCI-H23
Method in brief: as §1

[17] = system: NCI-H2405
Method in brief: as §1

[18] = system: NCI-H647
Method in brief: as §1

[19] = system: NCI-H661
Method in brief: as §1

[20] = system: RERF-LC-KJ
Method in brief: as §1

[21] = system: SK-LU-1
Method in brief: as §1

[22] = system: UMC-11
Method in brief: as §1

O=C(O)CCCCC(CCSCc1ccccc1)SCc1ccccc1 (centres undefined) [CPI-613] + CCNC(=O)c1noc(-c2cc(C(C)C)c(O)cc2O)c1-c1ccc(CN2CCOCC2)cc1 [Luminespib] (partner 0.01 µM)
relative viability ([1]; first compound 5 µM): 1.05 | relative viability ([1]; first compound 15.81 µM): 0.973 | relative viability ([1]; first compound 50 µM): 1.01 | relative viability ([1]; first compound 158.11 µM): 0.258 | relative viability ([1]; first compound 500 µM): 0.0468 | relative viability ([2]; first compound 5 µM): 0.629 | relative viability ([2]; first compound 50 µM): 0.776 | relative viability ([2]; first compound 158.11 µM): 0.185 | relative viability ([2]; first compound 500 µM): 0.183 | relative viability ([3]; first compound 5 µM): 1.15 | relative viability ([3]; first compound 15.81 µM): 1.08 | relative viability ([3]; first compound 50 µM): 1.16 | relative viability ([3]; first compound 158.11 µM): 0.396 | relative viability ([3]; first compound 500 µM): 0.0424 | relative viability ([4]; first compound 5 µM): 0.338 | relative viability ([4]; first compound 15.81 µM): 0.32 | relative viability ([4]; first compound 50 µM): 0.575 | relative viability ([4]; first compound 158.11 µM): 0.0624 | relative viability ([4]; first compound 500 µM): 0.0121 | relative viability ([5]; first compound 5 µM): 0.924 | relative viability ([5]; first compound 15.81 µM): 0.825 | relative viability ([5]; first compound 50 µM): 0.846 | relative viability ([5]; first compound 158.11 µM): 0.811 | relative viability ([5]; first compound 500 µM): 0.269 | relative viability ([6]; first compound 5 µM): 0.344 | relative viability ([6]; first compound 15.81 µM): 0.325 | relative viability ([6]; first compound 50 µM): 0.323 | relative viability ([6]; first compound 158.11 µM): 0.309 | relative viability ([6]; first compound 500 µM): 0.34 | relative viability ([7]; first compound 5 µM): 0.672 | relative viability ([7]; first compound 15.81 µM): 0.828 | relative viability ([7]; first compound 50 µM): 0.749 | relative viability ([7]; first compound 158.11 µM): 0.665 | relative viability ([7]; first compound 500 µM): 0.659 | relative viability ([8]; first compound 5 µM): 1.09 | relative viability ([8]; first compound 15.81 µM): 1.04 | relative viability ([8]; first compound 50 µM): 1.07 | relative viability ([8]; first compound 158.11 µM): 0.53 | relative viability ([8]; first compound 500 µM): 0.0571 | relative viability ([9]; first compound 5 µM): 0.867 | relative viability ([9]; first compound 15.81 µM): 0.932 | relative viability ([9]; first compound 50 µM): 0.841 | relative viability ([9]; first compound 158.11 µM): 0.185 | relative viability ([9]; first compound 500 µM): 0.118 | relative viability ([10]; first compound 5 µM): 0.197 | relative viability ([10]; first compound 15.81 µM): 0.194 | relative viability ([10]; first compound 50 µM): 0.164 | relative viability ([10]; first compound 158.11 µM): 0.165 | relative viability ([10]; first compound 500 µM): 0.107 | relative viability ([11]; first compound 5 µM): 0.512 | relative viability ([11]; first compound 15.81 µM): 0.396 | relative viability ([11]; first compound 50 µM): 0.375 | relative viability ([11]; first compound 158.11 µM): 0.353 | relative viability ([11]; first compound 500 µM): 0.39 | relative viability ([12]; first compound 5 µM): 0.252 | relative viability ([12]; first compound 15.81 µM): 0.372 | relative viability ([12]; first compound 50 µM): 0.175 | relative viability ([12]; first compound 158.11 µM): 0.131 | relative viability ([12]; first compound 500 µM): 0.0028 | relative viability ([13]; first compound 5 µM): 0.746 | relative viability ([13]; first compound 15.81 µM): 0.841 | relative viability ([13]; first compound 50 µM): 0.675 | relative viability ([13]; first compound 158.11 µM): 0.161 | relative viability ([13]; first compound 500 µM): 0.0405 | relative viability ([14]; first compound 5 µM): 0.173 | relative viability ([14]; first compound 15.81 µM): 0.171 | relative viability ([14]; first compound 50 µM): 0.194 | relative viability ([14]; first compound 158.11 µM): 0.141 | relative viability ([14]; first compound 500 µM): 0.28 | relative viability ([15]; first compound 5 µM): 0.791 | relative viability ([15]; first compound 15.81 µM): 0.692 | relative viability ([15]; first compound 50 µM): 0.736 | relative viability ([15]; first compound 158.11 µM): 0.052 | relative viability ([15]; first compound 500 µM): 0.0128 | relative viability ([16]; first compound 5 µM): 0.224 | relative viability ([16]; first compound 15.81 µM): 0.222 | relative viability ([16]; first compound 50 µM): 0.234 | relative viability ([16]; first compound 158.11 µM): 0.129 | relative viability ([16]; first compound 500 µM): 0.0632 | relative viability ([17]; first compound 5 µM): 0.657 | relative viability ([17]; first compound 15.81 µM): 0.711 | relative viability ([17]; first compound 50 µM): 0.622 | relative viability ([17]; first compound 158.11 µM): 0.736 | relative viability ([17]; first compound 500 µM): 0.727 | relative viability ([18]; first compound 5 µM): 0.133 | relative viability ([18]; first compound 15.81 µM): 0.152 | relative viability ([18]; first compound 50 µM): 0.113 | relative viability ([18]; first compound 158.11 µM): 0.144 | relative viability ([18]; first compound 500 µM): 0.119 | relative viability ([19]; first compound 5 µM): 0.887 | relative viability ([19]; first compound 15.81 µM): 0.904 | relative viability ([19]; first compound 50 µM): 0.916 | relative viability ([19]; first compound 158.11 µM): 0.468 | relative viability ([19]; first compound 500 µM): 0.141 | relative viability ([20]; first compound 5 µM): 1.28 | relative viability ([20]; first compound 15.81 µM): 1.22 | relative viability ([20]; first compound 50 µM): 1.23 | relative viability ([20]; first compound 158.11 µM): 0.235 | relative viability ([20]; first compound 500 µM): 0.198 | relative viability ([21]; first compound 5 µM): 0.205 | relative viability ([21]; first compound 15.81 µM): 0.2 | relative viability ([21]; first compound 50 µM): 0.198 | relative viability ([21]; first compound 158.11 µM): 0.128 | relative viability ([21]; first compound 500 µM): 0.101 | relative viability ([22]; first compound 5 µM): 0.977 | relative viability ([22]; first compound 15.81 µM): 1.02 | relative viability ([22]; first compound 50 µM): 0.955 | relative viability ([22]; first compound 158.11 µM): 0.148 | relative viability ([22]; first compound 500 µM): 0.112
